“Also recorded” adds a separate entry of the source.
Target: Gag' (GST-Gag) (Human immunodeficiency virus type 1 group M subtype B, UniProt P12493)
Type: binding, HIV-1
Details: DSF validation

C=C(C)[C@@H]1CC[C@]2(C(=O)O)CC[C@]3(C)[C@H](CC[C@@H]4[C@@]5(C)CC[C@H](OC(=O)CC(C)(C)C(=O)O)C(C)(C)[C@@H]5CC[C@]43C)[C@@H]12 [Bevirimat]
thermal stability (Tm) of Gag' in complex: increased the thermal stability; also recorded: higher melting temperature
